Experimental data as given in US9862730B2, “Imidazothiadiazole derivatives as protease activated receptor 4 (PAR4) inhibitors for treating platelet aggregation” (BRISTOL-MYERS SQUIBB COMPANY, priority 2012, dated 2018).

Molecular target: PAR4 (Homo sapiens (Human), UniProt Q96RI0)
Assay: FLIPR assay in PAR4-expressing HEK293 cells (PAR4 antagonist activity, calcium mobilization)
Format: cell-based
Conditions: FLIPR assay as described in Example A
Method in brief: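 HEK293 cells stably expressing human PAR4 (also endogenous PAR1) in HBSS/10 mM HEPES, 0.67% DMSO final. Compound added and read for agonist activity, then 30 min room temperature before PAR4 agonist peptide; intracellular calcium mobilization monitored by FDSS/FLIPR.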

Sequence of PAR4 (Q96RI0 18-385): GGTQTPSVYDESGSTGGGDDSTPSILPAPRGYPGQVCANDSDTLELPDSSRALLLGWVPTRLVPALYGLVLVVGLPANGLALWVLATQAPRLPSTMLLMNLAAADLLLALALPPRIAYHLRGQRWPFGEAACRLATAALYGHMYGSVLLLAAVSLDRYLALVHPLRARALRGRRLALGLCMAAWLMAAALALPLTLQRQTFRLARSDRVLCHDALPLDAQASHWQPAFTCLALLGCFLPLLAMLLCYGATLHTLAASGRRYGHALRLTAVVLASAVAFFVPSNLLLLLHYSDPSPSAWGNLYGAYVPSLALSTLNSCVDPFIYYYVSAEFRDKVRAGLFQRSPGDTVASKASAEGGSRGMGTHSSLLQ

| Structure (SMILES) | IC50 |
| --- | --- |
| COc1cc(OCc2cccc(OCc3ccc(Cl)cc3F)c2)c2cc(-c3cn4nc(OC)sc4n3)oc2c1 [Example 323] | 0.00148 µM |
| CCOC(=O)CCCCCOc1cccc2cc(-c3cn4nc(CC)sc4n3)oc12 [Example 65] | 1.47 µM |
| CSc1nn2cc(-c3nc4c(OC[C@H]5CCCN5C(=O)[C@H](NC(=O)c5cccs5)c5ccccc5)cccc4o3)nc2s1 [Example 336, N—((R)-2-((R)-2-(((2-(2-(Methylthio)imidazo[2,1-b][1,3,4]thiadiazol-6-yl)benzo[d]oxazol-4-yl)oxy)methyl)pyrrolidin-1-yl)-2-oxo-1-phenylethyl)thiophene-2-carboxamide] | 0.897 µM |
| CCc1nn2cc(-c3nc4cc(F)ccc4o3)nc2s1 [Example 49] | 0.361 µM |
| COc1nn2cc(-c3cc4cc(F)ccc4o3)nc2s1 [Example 97] | 0.00348 µM |
| CSc1nn2cc(-c3cc4c(Br)cccc4o3)nc2s1 [Example 258] | 0.00332 µM |
| COc1cc2oc(-c3cn4nc([C@H](C)F)sc4n3)cc2cc1Cl [270-1] | 0.00953 µM |
| COc1nn2cc(-c3nc4ccc(OCc5ccc(C(F)(F)F)cc5)cc4o3)nc2s1 [Example 165] | 0.081 µM |
| COc1nn2cc(-c3cc4c(OCc5ccccc5)cccc4o3)nc2s1 [Example 210, 6-(4-(Benzyloxy)benzofuran-2-yl)-2-methoxyimidazo[2,1-b][1,3,4]thiadiazole] | 0.0245 µM |
| CSc1nn2cc(-c3cc4c(C)cc(C)cc4o3)nc2s1 [Example 295] | 0.0121 µM |
| COc1nn2cc(-c3cc4c(C)cc(C)cc4o3)nc2s1 [Example 297] | 0.00588 µM |
| CC(F)(F)c1nn2cc(-c3nc4c(Cl)cccc4s3)nc2s1 [Example 198] | 4.71 µM |
| COc1cc(OCc2cccc(OCc3ccc(C)c(C)c3)c2)c2cc(-c3cn4nc(OC)sc4n3)oc2c1 [Example 381] | 0.00277 µM |
| COCOc1c(Br)ccc2oc(-c3cn4nc(OC)sc4n3)cc12 [Example 217A, 6-(5-Bromo-4-(methoxymethoxy)benzofuran-2-yl)-2-methoxyimidazo[2,1-b][1,3,4]thiadiazole] | 0.0451 µM |
| CSc1nn2cc(-c3nc4ccc(OCc5ccccc5Cl)cc4o3)nc2s1 [Example 151] | 0.673 µM |
| Fc1ccc2sc(-c3cn4nc(Br)sc4n3)nc2c1 [Example 193] | 1.04 µM |
| CSc1nn2cc(-c3nc4c(OC[C@H]5CCCN5C(=O)OC(C)(C)C)cccc4o3)nc2s1 [Example 331, (R)-tert-Butyl 2-(((2-(2-(methylthio)imidazo[2,1-b][1,3,4]thiadiazol-6-yl)benzo[d]oxazol-4-yl)oxy)methyl)pyrrolidine-1-carboxylate] | 0.0843 µM |
| CSc1nn2cc(-c3cc4c(OCc5cccc(OCc6ccccc6)c5)cc(OC=O)cc4o3)nc2s1 [Example 425] | 0.0124 µM |

Other lines, results leading:

| IC50 | Structure (SMILES) |
| --- | --- |
| 0.565 µM | CCc1nn2cc(-c3nc4cc(C)cc(C)c4o3)nc2s1 [Example 58] |
| 0.462 µM | CCc1nn2cc(-c3nc4c(C)cccc4o3)nc2s1 [Example 42] |
| 0.0186 µM | COc1cc(OC(C)C)c2cc(-c3cn4nc(SC)sc4n3)oc2c1 [Example 298] |
| 2.68 µM | Cc1ccc2nc(-c3cn4nc(C(C)(F)F)sc4n3)sc2c1 [Example 199] |
| 0.771 µM | CSc1nn2cc(-c3nc4c(Cl)cccc4s3)nc2s1 [Example 187] |
| 0.0245 µM | CSc1nn2cc(-c3cc4c(OCc5cccc(OCc6ccccc6)c5)cc(O)cc4o3)nc2s1 [Example 421] |
| 0.0508 µM | COc1cc(OC)c2cc(-c3cn4nc(C(C)F)sc4n3)oc2c1 (stereo not drawn) [Example 212, 6-(4,6-Dimethoxybenzofuran-2-yl)-2-(1-fluoroethyl)imidazo-[2,1-b][1,3,4]thiadiazole] |
| 0.139 µM | COc1cc(Br)cc2cc(-c3cn4nc(SC)sc4n3)oc12 [Example 284] |
| 0.0725 µM | COc1nn2cc(-c3cc4c(OCc5cccc(OCc6ccccc6)c5)cc(NC(C)=O)cc4o3)nc2s1 [Example 412, N-(4-((3-(Benzyloxy)benzyl)oxy)-2-(2-methoxyimidazo[2,1-b][1,3,4]thiadiazol-6-yl)benzofuran-6-yl)acetamide] |
